Results reported in patent US10189854B2, “Substituted pyrimidine compounds” (Grünenthal GmbH, priority 2014, dated 2019).

target: human PDE4B1 (Homo sapiens (Human), UniProt Q07343); assay: TR-FRET assay using the LANCE Ultra cAMP kit to determine the activity of hPDE4B1; format: biochemical; details: IC50 inhibition of PDE4B, mean
Method in brief: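 Recombinant human PDE4B1 (Sf9-expressed, 0.96 U) incubated with compound and 500 nM cAMP in 50 mM Tris-HCl, 50 mM MgCl2, 5 mM DTT, pH 8.5, 30 min at room temperature. Residual cAMP read by TR-FRET (665/620 nm ratio) after IBMX stop. IC50 from ten-concentration curves as % inhibition of control.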

Sequence of human PDE4B1 (Q07343 whole entry): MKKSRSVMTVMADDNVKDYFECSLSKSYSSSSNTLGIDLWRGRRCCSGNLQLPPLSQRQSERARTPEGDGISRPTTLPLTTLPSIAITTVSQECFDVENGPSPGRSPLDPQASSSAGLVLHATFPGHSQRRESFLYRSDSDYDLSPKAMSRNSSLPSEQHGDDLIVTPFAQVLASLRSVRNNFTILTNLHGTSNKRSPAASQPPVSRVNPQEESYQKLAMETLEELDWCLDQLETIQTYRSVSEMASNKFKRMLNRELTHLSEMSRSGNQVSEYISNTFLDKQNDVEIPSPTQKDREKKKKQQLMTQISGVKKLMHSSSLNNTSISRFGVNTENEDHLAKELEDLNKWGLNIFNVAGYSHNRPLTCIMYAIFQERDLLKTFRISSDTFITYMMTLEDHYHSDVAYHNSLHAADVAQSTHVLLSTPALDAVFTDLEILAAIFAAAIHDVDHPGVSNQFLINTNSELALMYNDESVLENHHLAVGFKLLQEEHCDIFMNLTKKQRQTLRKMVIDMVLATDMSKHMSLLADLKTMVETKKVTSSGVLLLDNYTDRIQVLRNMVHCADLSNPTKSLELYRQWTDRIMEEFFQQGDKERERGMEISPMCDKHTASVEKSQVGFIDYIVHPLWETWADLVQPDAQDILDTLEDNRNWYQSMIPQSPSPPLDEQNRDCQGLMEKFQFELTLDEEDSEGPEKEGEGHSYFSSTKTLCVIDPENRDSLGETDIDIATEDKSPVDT

SMILES | IC50
CN(CCO)C(=O)c1ccc2c(c1)N(c1ncc(-c3cc(S(C)(=O)=O)ccn3)cn1)CC21CC1 [Compound 289, N-(2-Hydroxy-ethyl)-N-methyl-1-[5-(4-methylsulfonyl-pyridin-2-yl)-pyrimidin-2-yl]-spiro[1,2-dihydro-indole-3,1′-cyclopropane]-6-carboxylic acid amide] | < 0.1 µM
Cc1cnnc(-c2cnc(N3CC4(CC4)c4ccc(C(=O)N(C)CCO)cc43)nc2)c1 [Compound 290, N-(2-hydroxyethyl)-N-methyl-1′-(5-(5-methylpyridazin-3-yl)pyrimidin-2-yl)spiro[cyclopropane-1,3′-indoline]-6′-carboxamide] | < 0.1 µM
O=C(c1ccc2c(c1)N(c1ncc(-c3cc(N4CCCC4)ccn3)cn1)CC21CC1)N1CCOCC1 [Compound 291, Morpholin-4-yl-[1-[5-(4-pyrrolidin1--yl-pyridin-2-yl)-pyrimidin-2-yl]-spiro[1,2-dihydro-indole-3,1′-cyclopropane]-6-yl]-methanone] | < 0.1 µM
CCNc1ccnc(-c2cnc(N3CC4(CC4)c4ccc(C(=O)N5CCOCC5)cc43)nc2)c1 [Compound 292, [1-[5-(4-Ethylamino-pyridin-2-yl)-pyrimidin-2-yl]-spiro[1,2-dihydro-indole-3,1′-cyclopropane]-6-yl]-morpholin-4-yl-methanone] | < 0.1 µM
CC(O)c1ccnc(-c2cnc(N3CC4(CC4)c4ccc(C(=O)N5CCOCC5)cc43)nc2)c1 (stereo not shown) [Compound 293, [1-[5-[4-(1-Hydroxy-ethyl)-pyridin-2-yl]-pyrimidin-2-yl]-spiro[1,2-dihydro-indole-3,1′-cyclopropane]-6-yl]-morpholin-4-yl-methanone] | < 0.1 µM
CC(C)(O)c1ccnc(-c2cnc(N3CC4(CC4)c4ccc(C(=O)N5CCOCC5)cc43)nc2)c1 [Compound 294, [1-[5-[4-(1-Hydroxy-1-methyl-ethyl)-pyridin-2-yl]-pyrimidin-2-yl]-spiro[1,2-dihydro-indole-3,1′-cyclopropane]-6-yl]-morpholin-4-yl-methanone] | < 0.1 µM
O=C(c1ccc2c(c1)N(c1ncc(-c3cc(NCC4CC4)ccn3)cn1)CC21CC1)N1CCOCC1 [Compound 295, [1-[5-[4-(Cyclopropyl-methylamino)-pyridin-2-yl]-pyrimidin-2-yl]-spiro[1,2-dihydro-indole-3,1′-cyclopropane]-6-yl]-morpholin-4-yl-methanone] | < 0.1 µM
CN(CCO)C(=O)c1ccc2c(c1)N(c1ncc(-c3cc(S(C)(=O)=O)ccc3F)cn1)CC21CC1 [Compound 296, 1-[5-(2-Fluoro-5-methylsulfonyl-phenyl)-pyrimidin-2-yl]-N-(2-hydroxy-ethyl)-N-methyl-spiro[1,2-dihydro-indole-3,1′-cyclopropane]-6-carboxylic acid amide] | < 0.1 µM
Cc1ccnc(-c2cnc(N3CC4(CC4)c4ccc(C(=O)N5C[C@@H]6C[C@H]5CN6)cc43)nc2)c1 [Compound 297, [(1S,4S)-2,5-Diazabicyclo[2.2.1]heptan-2-yl]-[1-[5-(4-methyl-pyridin-2-yl)-pyrimidin-2-yl]-spiro[1,2-dihydro-indole-3,1′-cyclopropane]-6-yl]-methanone] | < 0.1 µM
CCc1ccnc(-c2cnc(N3CC4(CC4)c4ccc(C(=O)N5C[C@@H]6C[C@H]5CN6)cc43)nc2)c1 [Compound 298, [(1S,4S)-2,5-Diazabicyclo[2.2.1]heptan-2-yl]-[1-[5-(4-ethyl-pyridin-2-yl)-pyrimidin-2-yl]-spiro[1,2-dihydro-indole-3,1′-cyclopropane]-6-yl]-methanone] | < 0.1 µM
Cc1ccnc(-c2cnc(N3CC4(CC4)c4ccc(C(=O)N(C)C)cc43)nc2)c1 [Compound 299, N,N-Dimethyl-1-[5-(4-methyl-pyridin-2-yl)-pyrimidin-2-yl]-spiro[1,2-dihydro-indole-3,1′-cyclopropane]-6-carboxylic acid amide] | < 0.1 µM
Cc1ccnc(-c2cnc(N3CC4(CC4)c4ccc(C(=O)N(C)CC(N)=O)cc43)nc2)c1 [Compound 300, N-(Carbamoyl-methyl)-N-methyl-1-[5-(4-methyl-pyridin-2-yl)-pyrimidin-2-yl]-spiro[1,2-dihydro-indole-3,1′-cyclopropane]-6-carboxylic acid amide] | < 0.1 µM
Nc1ccnc(-c2cnc(N3CC4(CC4)c4ccc(C(=O)N5C[C@@H]6C[C@H]5CN6)cc43)nc2)c1 [Compound 301, [1-[5-(4-Amino-pyridin-2-yl)-pyrimidin-2-yl]-spiro[1,2-dihydro-indole-3,1′-cyclopropane]-6-yl]-[(1S,4S)-2,5-diazabicyclo[2.2.1]heptan-2-yl]-methanone] | < 0.1 µM
CN(C)c1ccnc(-c2cnc(N3CC4(CC4)c4ccc(C(=O)N5C[C@@H]6C[C@H]5CN6)cc43)nc2)c1 [Compound 302, [(1S,4S)-2,5-Diazabicyclo[2.2.1]heptan-2-yl]-[1-[5-(4-dimethylamino-pyridin-2-yl)-pyrimidin-2-yl]-spiro[1,2-dihydro-indole-3,1′-cyclopropane]-6-yl]-methanone] | < 0.1 µM
Cc1cccc(-c2cnc(N3CC4(CC4)c4ccc(C(=O)N(C)C)cc43)nc2)n1 [Compound 303, N,N-Dimethyl-1-[5-(6-methyl-pyridin-2-yl)-pyrimidin-2-yl]-spiro[1,2-dihydro-indole-3,1′-cyclopropane]-6-carboxylic acid amide] | < 0.1 µM
O=C(c1ccc2c(c1)N(c1ncc(-c3ccccn3)cn1)CC21CC1)N1C[C@@H]2C[C@H]1CN2 [Compound 304, [(1S,4S)-2,5-Diazabicyclo[2.2.1]heptan-2-yl]-[1-(5-pyridin-2-yl-pyrimidin-2-yl)-spiro[1,2-dihydro-indole-3,1′-cyclopropane]-6-yl]-methanone] | < 0.1 µM
Cc1cccc(-c2cnc(N3CC4(CC4)c4ccc(C(=O)N5C[C@@H]6C[C@H]5CN6)cc43)nc2)n1 [Compound 305, [(1S,4S)-2,5-Diazabicyclo[2.2.1]heptan-2-yl]-[1-[5-(6-methyl-pyridin-2-yl)-pyrimidin-2-yl]-spiro[1,2-dihydro-indole-3,1′-cyclopropane]-6-yl]-methanone] | < 0.1 µM
CN(C)C(=O)c1ccc2c(c1)N(c1ncc(-c3ccccn3)cn1)CC21CC1 [Compound 306, N,N-Dimethyl-1-(5-pyridin-2-yl-pyrimidin-2-yl)-spiro[1,2-dihydro-indole-3,1′-cyclopropane]-6-carboxylic acid amide] | < 0.1 µM
Cc1cccc(-c2cnc(N3CC4(CC4)c4ccc(C(=O)N(C)CC(N)=O)cc43)nc2)n1 [Compound 307, N-(Carbamoyl-methyl)-N-methyl-1-[5-(6-methyl-pyridin-2-yl)-pyrimidin-2-yl]-spiro[1,2-dihydro-indole-3,1′-cyclopropane]-6-carboxylic acid amide] | < 0.1 µM

Next, values leading:

IC50 | SMILES
< 0.1 µM | CCc1ccnc(-c2cnc(N3CC4(CC4)c4ccc(C(=O)N(C)CC(N)=O)cc43)nc2)c1 [Compound 308, N-(Carbamoyl-methyl)-1-[5-(4-ethyl-pyridin-2-yl)-pyrimidin-2-yl]-N-methyl-spiro[1,2-dihydro-indole-3,1′-cyclopropane]-6-carboxylic acid amide]
< 0.1 µM | CN(CCO)C(=O)c1ccc2c(c1)N(c1ncc(-c3cc(C(C)(C)O)ccc3F)cn1)CC21CC1 [Compound 309, 1-[5-[2-Fluoro-5-(1-hydroxy-1-methyl-ethyl)-phenyl]-pyrimidin-2-yl]-N-(2-hydroxy-ethyl)-N-methyl-spiro[1,2-dihydro-indole-3,1′-cyclopropane]-6-carboxylic acid amide]
< 0.1 µM | O=C(c1ccc2c(c1)N(c1ncc(-c3ccccc3F)cn1)CC21CC1)N1CC[C@H](CO)C1 [Compound 310, [1-[5-(2-Fluorophenyl)-pyrimidin-2-yl]-spiro[1,2-dihydro-indole-3,1′-cyclopropane]-6-yl]-[(3S)-3-(hydroxymethyl)-pyrrolidin-1-yl]-methanone]
< 0.1 µM | O=C(c1ccc2c(c1)N(c1ncc(-c3ccccc3F)cn1)CC21CC1)N1CC[C@@H](CO)C1 [Compound 311, [1-[5-(2-Fluorophenyl)-pyrimidin-2-yl]-spiro[1,2-dihydro-indole-3,1′-cyclopropane]-6-yl]-[(3R)-3-(hydroxymethyl)-pyrrolidin-1-yl]-methanone]
< 0.1 µM | CC(O)c1ccc(F)c(-c2cnc(N3CC4(CC4)c4ccc(C(=O)N(C)CCO)cc43)nc2)c1 (stereo not shown) [Compound 312, 1-[5-[2-Fluoro-5-(1-hydroxy-ethyl)-phenyl]-pyrimidin-2-yl]-N-(2-hydroxy-ethyl)-N-methyl-spiro[1,2-dihydro-indole-3,1′-cyclopropane]-6-carboxylic acid amide]
< 0.1 µM | O=C(c1ccc2c(c1)N(c1ncc(-c3ccccc3F)cn1)CC21CC1)N1CCC[C@@H](CO)C1 [Compound 313, [1-[5-(2-Fluorophenyl)-pyrimidin-2-yl]-spiro[1,2-dihydro-indole-3,1′-cyclopropane]-6-yl]-[(3R)-3-(hydroxymethyl)-piperidin-1-l]-methanone]
< 0.1 µM | CN(CCO)C(=O)c1ccc2c(c1)N(c1ncc(-c3cc(C(C)(C)O)ccn3)cn1)CC21CC1 [Compound 314, N-(2-Hydroxy-ethyl)-1-[5-[4-(1-hydroxy-1-methyl-ethyl)-pyridin-2-yl]-pyrimidin-2-yl]-N-methyl-spiro[1,2-dihydro-indole-3,1′-cyclopropane]-6-carboxylic acid amide]
< 0.1 µM | CN(CCO)C(=O)c1ccc2c(c1)N(c1ncc(-c3cc(N4CCCC4)ccn3)cn1)CC21CC1 [Compound 315, N-(2-Hydroxy-ethyl)-N-methyl-1-[5-(4-pyrrolidin-1-yl-pyridin-2-yl)-pyrimidin-2-yl]-spiro[1,2-dihydro-indole-3,1′-cyclopropane]-6-carboxylic acid amide]
< 0.1 µM | CCNc1ccnc(-c2cnc(N3CC4(CC4)c4ccc(C(=O)N(C)CCO)cc43)nc2)c1 [Compound 316, 1-[5-(4-Ethylamino-pyridin-2-yl)-pyrimidin-2-yl]-N-(2-hydroxy-ethyl)-N-methyl-spiro[1,2-dihydro-indole-3,1′-cyclopropane]-6-carboxylic acid amide]
